Reference: patent US8815249B2 (priority 1999, dated 2014)
Entries after “also recorded” stand apart in the source; their conditions may differ. Like-named read-outs stand apart in the source and are kept apart here. Non-standard residues stand in square brackets, D forms with d. Ava = NCCCCC(=O)O

Experiments:
[1] = system: MHC Class II molecules; conditions: cited from earlier work
[2] = system: splenic T cells; design: species or system B10(A) 5R mice; conditions: mouse, in vivo
[3] = system: HIV gp160(843-855) peptide; assay type: in vivo; conditions: B10.A (5R) mice, peptides in saline solution, serum day 35
Description: An ELISA assay for antibody responses following immunization with the experimental peptides indicated above was performed as follows. Fifty microliters (μl) of a solution of the coating peptide at 2 μg/well in 0.1 M carbonate buffer, pH 9.5 was added to each well of a 96-well Nunc-immunoplate (#442404) for an overnight incubation at 4° C. After aspiration, 250 μl of phosphate-buffer saline solution containing 3% fetal bovine serum (assay diluent) was added to each well for 2 hr at RT. After washing three times with assay diluent, 50 μl of 20-times diluted mouse serum in 1:3 serial dilution in assay diluent was added to each well for 2 hr at RT. After washing three times with assay diluent, 50 μl of 1 ÿg/ml biotinylated goat anti-mouse IgG1 or IgG2a was added to each well and incubated for 1 hr at RT. After washing three times with assay diluent, 50 μl of streptavidin-horse radish peroxidase conjugate (1:1000) was added to each well and incubated for 30 min at RT. After washing three times with assay diluent, 100 μl of tetramethylbenzidine/H2O2 solution (Pharmingen 264KK) was added to each well for 15 min in the dark at room temperature. The reaction was stopped with 100 μl 1N H2SO4 in each well and the absorbance was read immediately at 450 nm.
B10.A (5R) mice (H-2^k/b) were immunized with 20 nmole of peptides in 50 μl phosphate-buffered saline solution, intramuscularly in right and left rear legs on days 1 and 2, respectively. On day 14 the mice were boosted intramuscularly with 40 nmole of peptides in 200 μl Hank's balanced salts solution intramuscularly in a rear leg. On day 30 the mice were boosted intravenously with 40 nmole peptides dissolved in Hank's balanced salts solution (HBSS). On day 35 the mice were sacrificed and serum samples were assayed for antibody titers against the HIV gp160(843-855) peptide.

[4] = system: splenic T cells; assay type: in vivo; conditions: C3H/HeJ mice, spleen cells day 35 re-stimulated with HIV gp160(843-855) peptide, triplicate wells
Description: An ELISPOT assay for IFN-γ cytokine responses was performed in order to titer more exactly splenic T lymphocyte subset responses to immunization with Ii-Key-ava-gp160(843-855) or gp160(843-855). The assay was performed as follows. A solution of the cytokine-specific capture antibody (100 μl at 6 μg/ml in phosphate-buffered saline solution, pH 7.2) was added to each well of a 96-well Immunospot plate (M200) for an overnight incubation at 4° C. After aspiration, phosphate-buffer saline solution 200 μl containing 10% fetal bovine serum and 1% penicillin-streptomycin-glutamine (mouse medium) was added to each well for 2 hr at RT. After washing four times with 1% Tween-20 in phosphate-buffered saline solution (wash buffer I), 100 μl of single cell suspensions from the spleens of immunized mice at 10^6 cells/well were re-stimulated with 100 μl of peptide-epitope at 5 μg/well in mouse medium and incubated for 20-40 hr at 37° C., 5% CO2. After washing twice with phosphate-buffered saline solution (wash buffer II) and four times with wash buffer I, 100 μl of 2 ÿg/ml biotinylated anti-mouse IFN-γ in 1× phosphate buffer saline with 10% fetal bovine serum (dilution buffer) was added to each well for 2 hr at RT. After washing five times with wash buffer I, 100 il of streptavidin-horse radish peroxidase conjugate (1:500) in dilution buffer was added to each well for 1 hr at RT. After washing four times with wash buffer I and two times with wash buffer II, 100 μl of the 3-amino-9-ethylcarbazole/H2O2 substrate (Pharmingen 551951) was added and incubated for 30-60 min in the dark at RT. The reaction was stopped by washing three times with 200 μl of deionized water. ELISPOT data analysis was performed by using the Immunospot 1.7e software ([…]). […] Additional counting parameters for spot size and circularity were applied to gate out speckles caused by non-specific antibody binding. Each spot represents a single cell secreting IFN-γ.
C3H/HeJ(H-2^k) mice were immunized with 40 nmole of peptides (50 μl) emulsified with equal volume of incomplete Freund's adjuvant (IFA), subcutaneously at the base of the tail. On day 13 the mice were boosted subcutaneously at the base of the tail with 40 nmole of peptides (50 μl) emulsified with equal amount of incomplete Freund's adjuvant (IFA). On day 31, the mice were boosted intravenously with 40 nmole peptides dissolved in 100 μl Hank's balanced salts solution (HBSS). On day 35, the mice were sacrificed and single cell suspensions from spleens were assayed for IFN-γ responses to HIV gp160(843-855) peptide.
Number is the mean number of spots (and standard deviation) in triplicate wells and Size is the mean spot size in mm^2 (and standard deviation). Ii-Key/gp160(844-855) has one ava spacer (Ii-key-ava-gp160(844-855)).

[5] = system: PGCC(95-104) epitope peptide; design: species or system C3H/HeJ mice; conditions: mouse, in vivo
[6] = system: HLA alleles of the A2 supertype (A2.2, A2.3, A2.6 and A6802); conditions: cited from earlier work
[7] = system: tumor cells expressing CEA; conditions: cited from earlier work
[8] = system: purified splenic CD4+ Th cells; design: species or system DR4-IE Tg mice; conditions: mouse, in vivo, sc
[9] = system: total splenic cells from DR4-IE Tg mice; assay: IFN-γ ELISPOT recall response, total splenic cells, Ii-Key/gp100 hybrids; assay type: in vivo; conditions: specificity control
From the text: Immunizations. DR4-IE Tg mice were immunized subcutaneously at the base of the tail with 40 nmole or 60 nmole of Ii-Key/gp100 MHC class II hybrid or epitope-only peptides, dissolved in saline and emulsified with an equal volume of either IFA or CFA. The synthetic phosphorothioate-modified CpG ODN 1826, 5′ TCC […] CTG ACGTT 3′ (SEQ ID NO.: 906) immunostimulatory nucleotide (CpG motif underlined) was purchased from Oligos Etc. (Wilsonville, Oreg.). DR4-IE Tg mice were vaccinated s.c. with 60 nmole of designated immunogen in an emulsion with IFA and 60 μg CpG. […]
ELISPOT assays. […] Digitalized images of spots were analyzed with a Series 1 Immunospot Analyzer and Immunospot 1.7e software (Cellular Technology Limited, Cleveland, Ohio). Criteria for spot size, circularity and color density were determined by comparing control and experimental wells. […] Only areas meeting the specified criteria were counted as spots. Mean and standard deviations were calculated for all assays. […]
Structure-activity rules identified in study. The stimulation of splenic mononuclear lymphocytes from HLA-DR4-IE Tg mice immunized with, respectively, with each of the peptides of Table 1.2 with complete Freund's adjuvant (CFA), was determined in an ELISPOT assay for IFN-γ, IL-4 and IL-2. […]

Substance: LRMKLPKPPKPVSQMR [Ii(77-92)]
- activity of Ii-Key peptides in presentation of antigenic peptides [1]: enhanced presentation of antigenic peptides

Substance: LRMKLPK (printed: Leu-Arg-Met-Lys-Leu-Pro-Lys)
- activity of Ii-Key peptides in presentation of antigenic peptides [1]: significantly greater activity

Substance: Ac-LRMK-AYRAIRHIPR-NH2 (Ac-LRMKAYRAIRHIPR-NH2) [gp160(843-855)]
- Percentage of cells CD3^+/IFN-γ^+ [2]: 2.05%
- Percentage of cells CD4^+ [2]: 31.03%
- Percentage of cells CD4^+/IFN-γ^+ [2]: 0.94%
- Antibody induction, ELISA against HIV gp160(843-855) peptide ([3]; Dilution^−1 20): 0.052
- Antibody induction, ELISA against HIV gp160(843-855) peptide ([3]; Dilution^−1 60): 0.023
- Antibody induction, ELISA against HIV gp160(843-855) peptide ([3]; Dilution^−1 180): 0.000
- Antibody induction, ELISA against HIV gp160(843-855) peptide ([3]; Dilution^−1 540): −0.005
- Number (mean number of IFN-γ ELISPOT spots and standard deviation) [4]: 5 (+/−3.6)
- Size (mean spot size and standard deviation) [4]: 0.019 (+/−0.01) mm^2

Substance: LRMK
- activity of Ii-Key peptides in presentation of antigenic peptides [1]: half-maximal activity

Substance: Ac-LRMK-ava-IAYLKQATAK-NH2 (Ac-LRMK[Ava]IAYLKQATAK-NH2; SMILES CC[C@H](C)[C@H](NC(=O)CCCCNC(=O)[C@H](CCCCN)NC(=O)[C@H](CCSC)NC(=O)[C@H](CCCNC(=N)N)NC(=O)[C@H](CC(C)C)NC(C)=O)C(=O)N[C@@H](C)C(=O)N[C@@H](Cc1ccc(O)cc1)C(=O)N[C@@H](CC(C)C)C(=O)N[C@@H](CCCCN)C(=O)N[C@@H](CCC(N)=O)C(=O)N[C@@H](C)C(=O)N[C@H](C(=O)N[C@@H](C)C(=O)N[C@@H](CCCCN)C(N)=O)[C@@H](C)O) [Ii-Key/PGCC]
- antibody titers against PGCC epitope [5]: Significantly greater antibody titers

Substance: LMTFWNPPV [9.5.2]
- binding to HLA alleles of the A2 supertype [6]: bound tightly
- CTL induction [7]: induced vigorous anti-tumor CTL responses

Substance: QYSWFVNGTF [9.5.4]
- CTL induction [7]: elicited CTL lines that lysed tumor cells

Substance: HLFYSWYK [9.5.6]
- CTL induction [7]: elicited CTL lines that lysed tumor cells

Substance: RQLYPEWTEAQRL [Peptide A]
- IFN-γ spots [8]: 491 spots

Substance: GVGSPYVSRLLGICL [HER-2/neu (776-790) epitope]
- spots on in vitro stimulation with non-specific DR4 restricted epitope ([9]; immunization in CFA): Less than 10 spots/well
- spots on stimulation with non-specific HLA-DR4-restricted epitope ([9]; b664 CFA, b669 CpG in IFA): non-significant immune response; also recorded: three to six spots

Substance: Ac-LRMK-ava-YRAIRHIPR-NH2 (Ac-LRMK[Ava]YRAIRHIPR-NH2; SMILES CC[C@H](C)[C@H](NC(=O)[C@H](C)NC(=O)[C@H](CCCNC(=N)N)NC(=O)[C@H](Cc1ccc(O)cc1)NC(=O)CCCCNC(=O)[C@H](CCCCN)NC(=O)[C@H](CCSC)NC(=O)[C@H](CCCNC(=N)N)NC(=O)[C@H](CC(C)C)NC(C)=O)C(=O)N[C@@H](CCCNC(=N)N)C(=O)N[C@@H](Cc1c[nH]cn1)C(=O)N[C@H](C(=O)N1CCC[C@H]1C(=O)N[C@@H](CCCNC(=N)N)C(N)=O)[C@@H](C)CC) [Ii-Key/one-ava/gp160(844-855)]
- Number (mean number of IFN-γ ELISPOT spots and standard deviation) [4]: 59 (+/−5)
- Size (mean spot size and standard deviation) [4]: 0.028 (+/−0.006) mm^2
